Consider twelve molecules from ChEMBL document CHEMBL5214952, “Unique iminotetrahydroberberine-corbelled metronidazoles as potential membrane active broad-spectrum antibacterial agents” (Bioorg Med Chem Lett, 2022).

A word on the MIC: it is the lowest concentration that inhibits growth of the organism.

For assay [1], the system named is Escherichia coli. The experiment in a line: Antibacterial activity against Escherichia coli ATCC 25922 assessed as inhibition of bacterial growth by CLSI based continuous dilution method. It is filed as functional.
A further assay has as its system Klebsiella pneumoniae. As to the kind of experiment: Antibacterial activity against Klebsiella pneumoniae assessed as inhibition of bacterial growth by CLSI based continuous dilution method. It is filed as functional.
In another assay the test system is Acinetobacter baumannii. The experiment in a line: Antibacterial activity against Acinetobacter baumannii assessed as inhibition of bacterial growth by CLSI based continuous dilution method. Format: functional.
Assay [2] concerns Pseudomonas aeruginosa. As to the kind of experiment: Antibacterial activity against Pseudomonas aeruginosa assessed as inhibition of bacterial growth by CLSI based continuous dilution method. Format: functional.
Assay [3] deals with Staphylococcus aureus. As to the kind of experiment: Antibacterial activity against Staphylococcus aureus ATCC 29213 assessed as inhibition of bacterial growth by CLSI based continuous dilution method. It is filed as functional.
In another assay the test system is Enterococcus faecalis. The experiment in a line: Antibacterial activity against Enterococcus faecalis assessed as inhibition of bacterial growth by CLSI based continuous dilution method. It is filed as functional.
Assay [4] concerns Pseudomonas aeruginosa. The experiment in a line: Antibacterial activity against Pseudomonas aeruginosa ATCC 27853 assessed as inhibition of bacterial growth by CLSI based continuous dilution method. Format: functional.
For assay [5], the system named is Staphylococcus aureus. As to the kind of experiment: Antibacterial activity against Staphylococcus aureus assessed as inhibition of bacterial growth by CLSI based continuous dilution method. It is filed as functional.
In assay [6] the test system is Staphylococcus aureus. The experiment in a line: Antibacterial activity against methicillin-resistant Staphylococcus aureus assessed as inhibition of bacterial growth by CLSI based continuous dilution method. It is filed as functional.
Assay [7] relates to Escherichia coli. As to the kind of experiment: Antibacterial activity against Escherichia coli assessed as inhibition of bacterial growth by CLSI based continuous dilution method. It is filed as functional.
Assay [8] deals with Staphylococcus aureus. As to the kind of experiment: Antibacterial activity against Staphylococcus aureus ATCC 25923 assessed as inhibition of bacterial growth by CLSI based continuous dilution method. Format: functional.
A further assay relates to Aspergillus fumigatus. As to the kind of experiment: Antifungal activity against Aspergillus fumigatus assessed as inhibition of fungal growth by CLSI based continuous dilution method. It is filed as functional, organism-based.
The subject of assay [9] is Pseudomonas aeruginosa. As to the kind of experiment: Induction of drug resistance in Pseudomonas aeruginosa assessed as reduction in susceptibility measured after 6 passages. Format: functional.
Assay [10] deals with Pseudomonas aeruginosa. As to the kind of experiment: Induction of drug resistance in Pseudomonas aeruginosa assessed as fold increase in MIC measured after 11 passages. Format: functional.

Values after ≈ are worked out from the molar mass of the structure shown. Active and inactive are the calls of the source. The calls are words filed in the database; no cut-off is given here.

For `COc1cc(/C=N/OC(C)(C)C)c2c(c1OCC(O)Cn1c([N+](=O)[O-])cnc1C)CN1CCc3cc4c(cc3C1C2)OCO4` (stereo not drawn), the MIC in the assay on Escherichia coli [1] was 211 µM (≈ 128 µg/mL); in the assay with Klebsiella pneumoniae, 52 µM (≈ 31.6 µg/mL); in the assay with Acinetobacter baumannii it was 211 µM (≈ 128 µg/mL); in the assay on Pseudomonas aeruginosa [2] it was 211 µM (≈ 128 µg/mL); with Staphylococcus aureus [3], 211 µM (≈ 128 µg/mL); with Enterococcus faecalis, 211 µM (≈ 128 µg/mL). For the same molecule, the MIC with Pseudomonas aeruginosa [4] came out at 52 µM (≈ 31.6 µg/mL); with Staphylococcus aureus [5], 105 µM (≈ 63.8 µg/mL); with Staphylococcus aureus [6] it was 52 µM (≈ 31.6 µg/mL); in the assay on Escherichia coli [7] it was 422 µM (≈ 256 µg/mL); in the assay with Staphylococcus aureus [8], 52 µM (≈ 31.6 µg/mL). In addition, in the assay with Aspergillus fumigatus, the outcome was Active.
`Cc1ncc([N+](=O)[O-])n1CCO` [METRONIDAZOLE]: the MIC stood at 1500 µM (≈ 256 µg/mL) in the assay with Escherichia coli [1]; 374 µM (≈ 64 µg/mL) in the assay with Klebsiella pneumoniae; 1500 µM (≈ 256 µg/mL) in the assay with Acinetobacter baumannii; 1500 µM (≈ 256 µg/mL) in the assay with Pseudomonas aeruginosa [2]; 1500 µM (≈ 256 µg/mL) in the assay with Staphylococcus aureus [3]; 748 µM (≈ 128 µg/mL) with Enterococcus faecalis. For the same molecule, the MIC with Pseudomonas aeruginosa [4], in the assay with Staphylococcus aureus [5], in the assay on Staphylococcus aureus [6], in the assay with Escherichia coli [7] and in the assay on Staphylococcus aureus [8] was 1500 µM (≈ 256 µg/mL) throughout.
On to `CCCCO/N=C/c1cc(OC)c(OCC(O)Cn2c([N+](=O)[O-])cnc2C)c2c1CC1c3cc4c(cc3CCN1C2)OCO4` (stereo not drawn), for which the MIC in the assay with Escherichia coli [1], with Klebsiella pneumoniae, in the assay with Acinetobacter baumannii, in the assay with Pseudomonas aeruginosa [2], in the assay on Staphylococcus aureus [3] and with Enterococcus faecalis was 843 µM (≈ 512 µg/mL) each time. The MIC in the assay with Pseudomonas aeruginosa [4], in the assay on Staphylococcus aureus [5], in the assay with Staphylococcus aureus [6], in the assay on Escherichia coli [7] and in the assay on Staphylococcus aureus [8] was 843 µM (≈ 512 µg/mL) in each case. Further, the outcome in the assay on Aspergillus fumigatus was Active.
For `COc1ccc2cc3[n+](cc2c1OC)CCc1cc2c(cc1-3)OCO2` [BERBERINE], the minimal inhibitory concentration (MIC) in the assay on Escherichia coli [1] turned out to be 380 µM; in the assay on Klebsiella pneumoniae, 190 µM; in the assay with Acinetobacter baumannii it was 190 µM; with Pseudomonas aeruginosa [2] it was 1520 µM; in the assay with Staphylococcus aureus [3], 190 µM; in the assay with Enterococcus faecalis, 380 µM. Moreover, the MIC with Pseudomonas aeruginosa [4] stood at 380 µM; with Staphylococcus aureus [5], 380 µM; with Staphylococcus aureus [6], 761 µM; in the assay on Escherichia coli [7], 380 µM; in the assay on Staphylococcus aureus [8], 380 µM.
Regarding `CCn1cc(C(=O)O)c(=O)c2cc(F)c(N3CCNCC3)cc21` [NORFLOXACIN], the MIC worked out at 25 µM (≈ 7.98 µg/mL) with Escherichia coli [1]; 25 µM (≈ 7.98 µg/mL) with Klebsiella pneumoniae; 25 µM (≈ 7.98 µg/mL) in the assay with Acinetobacter baumannii; 50 µM (≈ 16 µg/mL) in the assay on Pseudomonas aeruginosa [2]; 3 µM (≈ 0.958 µg/mL) in the assay on Staphylococcus aureus [3]; 6 µM (≈ 1.92 µg/mL) with Enterococcus faecalis. Besides, the MIC amounted to 12 µM (≈ 3.83 µg/mL) with Pseudomonas aeruginosa [4]; 25 µM (≈ 7.98 µg/mL) in the assay with Staphylococcus aureus [5]; 25 µM (≈ 7.98 µg/mL) in the assay on Staphylococcus aureus [6]; 50 µM (≈ 16 µg/mL) in the assay on Escherichia coli [7]; 100 µM (≈ 31.9 µg/mL) with Staphylococcus aureus [8]. The outcome in the assay with Pseudomonas aeruginosa [9] was Active. The fold change (FC) with Pseudomonas aeruginosa [10] turned out to be 8.
With `CO/N=C/c1cc(OC)c(OCC(O)Cn2c([N+](=O)[O-])cnc2C)c2c1CC1c3cc4c(cc3CCN1C2)OCO4` (stereo not drawn), the MIC stood at 905 µM (≈ 512 µg/mL) in the assay with Escherichia coli [1]; 905 µM (≈ 512 µg/mL) in the assay on Klebsiella pneumoniae; 905 µM (≈ 512 µg/mL) in the assay on Acinetobacter baumannii; 905 µM (≈ 512 µg/mL) in the assay on Pseudomonas aeruginosa [2]; 905 µM (≈ 512 µg/mL) in the assay on Staphylococcus aureus [3]; 226 µM (≈ 128 µg/mL) with Enterococcus faecalis. Also, the MIC in the assay on Pseudomonas aeruginosa [4] amounted to 113 µM (≈ 63.9 µg/mL); with Staphylococcus aureus [5], 452 µM (≈ 256 µg/mL); in the assay on Staphylococcus aureus [6], 905 µM (≈ 512 µg/mL); in the assay on Escherichia coli [7] it was 905 µM (≈ 512 µg/mL); in the assay on Staphylococcus aureus [8], 56 µM (≈ 31.7 µg/mL). The outcome in the assay on Aspergillus fumigatus was Active.
As for `COc1cc(/C=N/O)c2c(c1OCC(O)Cn1c([N+](=O)[O-])cnc1C)CN1CCc3cc4c(cc3C1C2)OCO4` (stereo not drawn), the minimal inhibitory concentration (MIC) in the assay on Escherichia coli [1] turned out to be 29 µM (≈ 16 µg/mL); in the assay with Klebsiella pneumoniae, 464 µM (≈ 256 µg/mL); with Acinetobacter baumannii, 58 µM (≈ 32 µg/mL); in the assay with Pseudomonas aeruginosa [2] it was 116 µM (≈ 64 µg/mL); with Staphylococcus aureus [3], 232 µM (≈ 128 µg/mL); in the assay with Enterococcus faecalis, 29 µM (≈ 16 µg/mL). Besides, the MIC in the assay with Pseudomonas aeruginosa [4] stood at 58 µM (≈ 32 µg/mL); in the assay on Staphylococcus aureus [5], 58 µM (≈ 32 µg/mL); with Staphylococcus aureus [6] it was 116 µM (≈ 64 µg/mL); with Escherichia coli [7] it was 15 µM (≈ 8.27 µg/mL); with Staphylococcus aureus [8] it was 58 µM (≈ 32 µg/mL). Moreover, the result in the assay with Aspergillus fumigatus was Active.
Take `CCCCCO/N=C/c1cc(OC)c(OCC(O)Cn2c([N+](=O)[O-])cnc2C)c2c1CC1c3cc4c(cc3CCN1C2)OCO4` (stereo not drawn): the minimum inhibitory concentration (MIC) was 206 µM (≈ 128 µg/mL) with Escherichia coli [1]; 824 µM (≈ 512 µg/mL) with Klebsiella pneumoniae; 206 µM (≈ 128 µg/mL) with Acinetobacter baumannii; 824 µM (≈ 512 µg/mL) with Pseudomonas aeruginosa [2]; 824 µM (≈ 512 µg/mL) in the assay with Staphylococcus aureus [3]; 824 µM (≈ 512 µg/mL) with Enterococcus faecalis. In addition, the MIC in the assay on Pseudomonas aeruginosa [4], in the assay with Staphylococcus aureus [5], in the assay with Staphylococcus aureus [6], in the assay on Escherichia coli [7] and in the assay on Staphylococcus aureus [8] was 824 µM (≈ 512 µg/mL) each time. Further, the outcome in the assay on Aspergillus fumigatus was Active.
As to `CCCCCCO/N=C/c1cc(OC)c(OCC(O)Cn2c([N+](=O)[O-])cnc2C)c2c1CC1c3cc4c(cc3CCN1C2)OCO4` (stereo not drawn), the MIC with Escherichia coli [1], in the assay on Klebsiella pneumoniae, in the assay on Acinetobacter baumannii, with Pseudomonas aeruginosa [2], in the assay on Staphylococcus aureus [3] and in the assay on Enterococcus faecalis was 805 µM (≈ 512 µg/mL) throughout. In addition, the MIC in the assay with Pseudomonas aeruginosa [4] is 805 µM (≈ 512 µg/mL); with Staphylococcus aureus [5] it was 805 µM (≈ 512 µg/mL); in the assay on Staphylococcus aureus [6], 805 µM (≈ 512 µg/mL); in the assay with Escherichia coli [7], 805 µM (≈ 512 µg/mL); with Staphylococcus aureus [8], 50 µM (≈ 31.8 µg/mL). In addition, the result in the assay with Aspergillus fumigatus was Active.
For the molecule `C=CCO/N=C/c1cc(OC)c(OCC(O)Cn2c([N+](=O)[O-])cnc2C)c2c1CC1c3cc4c(cc3CCN1C2)OCO4` (stereo not drawn), the MIC in the assay on Escherichia coli [1] was 216 µM (≈ 128 µg/mL); with Klebsiella pneumoniae, 54 µM (≈ 31.9 µg/mL); in the assay with Acinetobacter baumannii, 216 µM (≈ 128 µg/mL); in the assay on Pseudomonas aeruginosa [2] it was 216 µM (≈ 128 µg/mL); in the assay on Staphylococcus aureus [3], 216 µM (≈ 128 µg/mL); with Enterococcus faecalis, 216 µM (≈ 128 µg/mL). Besides, the MIC in the assay with Pseudomonas aeruginosa [4] was found to be 54 µM (≈ 31.9 µg/mL); with Staphylococcus aureus [5] it was 108 µM (≈ 63.9 µg/mL); in the assay with Staphylococcus aureus [6] it was 54 µM (≈ 31.9 µg/mL); in the assay on Escherichia coli [7], 433 µM (≈ 256 µg/mL); in the assay on Staphylococcus aureus [8] it was 54 µM (≈ 31.9 µg/mL). Besides, the result in the assay on Aspergillus fumigatus was Active.
As for `CCO/N=C/c1cc(OC)c(OCC(O)Cn2c([N+](=O)[O-])cnc2C)c2c1CC1c3cc4c(cc3CCN1C2)OCO4` (stereo not drawn), the MIC with Escherichia coli [1], in the assay with Klebsiella pneumoniae, with Acinetobacter baumannii, in the assay with Pseudomonas aeruginosa [2], in the assay on Staphylococcus aureus [3] and in the assay with Enterococcus faecalis was 883 µM (≈ 512 µg/mL) throughout. Also, the MIC in the assay on Pseudomonas aeruginosa [4], in the assay on Staphylococcus aureus [5], in the assay on Staphylococcus aureus [6], with Escherichia coli [7] and in the assay on Staphylococcus aureus [8] was 883 µM (≈ 512 µg/mL) throughout. In the assay on Aspergillus fumigatus, the outcome was Active.
As to `CCCO/N=C/c1cc(OC)c(OCC(O)Cn2c([N+](=O)[O-])cnc2C)c2c1CC1c3cc4c(cc3CCN1C2)OCO4` (stereo not drawn), the MIC with Escherichia coli [1] amounted to 215 µM (≈ 128 µg/mL); in the assay with Klebsiella pneumoniae it was 863 µM (≈ 512 µg/mL); with Acinetobacter baumannii, 863 µM (≈ 512 µg/mL); in the assay with Pseudomonas aeruginosa [2], 863 µM (≈ 512 µg/mL); in the assay with Staphylococcus aureus [3], 863 µM (≈ 512 µg/mL); in the assay on Enterococcus faecalis it was 863 µM (≈ 512 µg/mL). Further, the MIC with Pseudomonas aeruginosa [4] was found to be 863 µM (≈ 512 µg/mL); in the assay with Staphylococcus aureus [5], 863 µM (≈ 512 µg/mL); with Staphylococcus aureus [6] it was 863 µM (≈ 512 µg/mL); with Escherichia coli [7] it was 863 µM (≈ 512 µg/mL); in the assay with Staphylococcus aureus [8] it was 215 µM (≈ 128 µg/mL). Further, the result with Aspergillus fumigatus was Active.
